The source made the active and inactive calls.
Key:
Candida albicans [1] = assay: C. albicans growth inhibition with fluconazole – CaCi-2 strain, Alamar Blue, dry powder, set 4, dose response (AID 488943); type: functional, organism-based
Candida albicans [2] = assay: fluconazole-resistant Candida strain growth inhibitors – CaCi-8 strain, dry powder, set 4, dose response (AID 488950); type: functional, organism-based
Candida albicans [3] = assay: Candida growth inhibition combined with fluconazole – CaCi-2 strain, Alamar Blue, dry powder, set 3, dose response (AID 488907); type: functional, organism-based
Caspase-6 = biological target: T1, Caspase-6 (Homo sapiens, UniProt P55212); assay: inhibition of CASP6 peptide cleavage – biochemical, VEID-R110 fluorescence, cherry-pick, dose response (AID 720632)
T1 sequence (P55212 whole entry): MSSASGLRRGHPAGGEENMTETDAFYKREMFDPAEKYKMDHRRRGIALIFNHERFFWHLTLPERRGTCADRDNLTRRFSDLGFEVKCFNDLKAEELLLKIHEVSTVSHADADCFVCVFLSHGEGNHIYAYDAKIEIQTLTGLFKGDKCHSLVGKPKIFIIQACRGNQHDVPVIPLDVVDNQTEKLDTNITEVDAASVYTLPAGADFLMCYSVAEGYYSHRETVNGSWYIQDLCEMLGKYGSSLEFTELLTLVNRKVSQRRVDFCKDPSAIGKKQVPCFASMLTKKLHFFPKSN

[4] = biological target: T2, Microphthalmia-associated transcription factor (Homo sapiens, UniProt O75030); assay: reducers of TRPM1 reporter luminescence, concentration series – cell-based, SK-MEL-5, cherry-picked, set 3, MITF inhibitor project, dose response (AID 493073); type: functional;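 also: SK-MEL-5 melanoma cells with luciferase driven by the MITF target TRPM1 promoter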
T2 sequence (O75030 whole entry): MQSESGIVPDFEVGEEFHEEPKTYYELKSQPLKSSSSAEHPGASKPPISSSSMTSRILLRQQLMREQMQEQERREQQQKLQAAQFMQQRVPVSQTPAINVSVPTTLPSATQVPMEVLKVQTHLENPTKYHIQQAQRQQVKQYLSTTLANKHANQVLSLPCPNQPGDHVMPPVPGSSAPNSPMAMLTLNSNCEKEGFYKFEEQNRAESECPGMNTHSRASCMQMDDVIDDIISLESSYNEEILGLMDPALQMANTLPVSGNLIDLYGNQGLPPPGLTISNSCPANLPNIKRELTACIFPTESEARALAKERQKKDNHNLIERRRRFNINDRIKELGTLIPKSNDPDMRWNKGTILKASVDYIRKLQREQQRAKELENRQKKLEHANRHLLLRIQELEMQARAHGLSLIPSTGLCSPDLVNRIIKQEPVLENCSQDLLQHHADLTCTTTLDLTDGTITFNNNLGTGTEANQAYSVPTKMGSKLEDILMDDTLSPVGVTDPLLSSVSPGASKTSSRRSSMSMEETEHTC

Caspase-8 = Caspase-8 (Homo sapiens, UniProt Q14790); assay: inhibitors of purified CASP8 protease – biochemical, Z-IETD-R110 fluorescence, cherry-picked samples, selectivity assay for caspase-6 inhibitor project, dose response (AID 743294)
Caspase-7 = Caspase-7 (Homo sapiens, UniProt P55210); assay: caspase-7 enzyme inhibition, selectivity check – biochemical, DEVD-R110 fluorescence, cherry-pick, selectivity assay for caspase-6 inhibitor project, dose response (AID 743295); type: functional
[5] = biological target: Apoptotic protease-activating factor 1 (Homo sapiens, UniProt O14727); type: functional
[6] = biological target: T3, Sentrin-specific protease 8 (Homo sapiens, UniProt Q96LD8); type: functional
T3 sequence (Q96LD8 whole entry): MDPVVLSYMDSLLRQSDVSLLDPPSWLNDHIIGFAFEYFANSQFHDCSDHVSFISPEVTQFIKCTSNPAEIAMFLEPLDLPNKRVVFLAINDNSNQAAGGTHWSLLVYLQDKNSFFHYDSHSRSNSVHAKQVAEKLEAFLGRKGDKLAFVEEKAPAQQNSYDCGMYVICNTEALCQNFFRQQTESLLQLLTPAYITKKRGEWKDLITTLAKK

[7] = biological target: T3, Sentrin-specific protease 8; type: functional; remark: listed apart in the source
Caspase-9 = Caspase-9 (Homo sapiens, UniProt P55211); assay: inhibitors of purified CASP9 protease – biochemical, fluorescence, plate reader, cherry-picked samples, selectivity assay for caspase-6 inhibitor project, dose response (AID 743293)
Streptokinase A = biological target: T4, Streptokinase A (Streptococcus pyogenes serotype M1, UniProt P10520); assay: viability-normalized secreted streptokinase activity reduction – plasminogen activation absorbance, OD405, dose response (AID 1914); type: functional, Streptococcus pyogenes M1 GAS;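 also: secreted streptokinase activity via plasminogen activation per viability signal from cell pellet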
T4 sequence (P10520 whole entry): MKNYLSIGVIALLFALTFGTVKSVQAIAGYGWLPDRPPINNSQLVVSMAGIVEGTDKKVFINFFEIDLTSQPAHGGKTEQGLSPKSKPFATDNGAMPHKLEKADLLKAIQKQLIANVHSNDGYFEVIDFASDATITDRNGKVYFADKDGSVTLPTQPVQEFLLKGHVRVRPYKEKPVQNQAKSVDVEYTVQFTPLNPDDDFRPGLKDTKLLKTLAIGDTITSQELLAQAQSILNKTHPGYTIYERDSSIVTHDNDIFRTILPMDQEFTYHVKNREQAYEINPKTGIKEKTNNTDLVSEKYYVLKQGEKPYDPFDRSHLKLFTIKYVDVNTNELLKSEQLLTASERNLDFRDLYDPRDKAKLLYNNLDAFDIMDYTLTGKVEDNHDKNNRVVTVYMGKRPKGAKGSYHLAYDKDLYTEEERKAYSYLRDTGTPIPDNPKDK

Phospholipase A2 = Phospholipase A2 (Homo sapiens, UniProt P04054); type: functional;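 also: confirmatory dose-response counterscreen on phospholipase A2, testing hits that came from an ultra-high-throughput screen for ATG4B inhibitors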
Cysteine protease ATG4B = Cysteine protease ATG4B (Homo sapiens, UniProt Q9Y4P1); type: functional;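 also: Fluorescence-based dose-response confirmation assay measuring inhibition of ATG4B activity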
Streptococcus = assay: GAS UMAA2166 growth inhibition – luminescence, BacTiterGlo, counter-screen for streptokinase expression inhibitor project, dose response (AID 1915); type: functional, organism-based;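 also: potency for reduction of bacterial viability or growth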
[8] = test system: Streptococcus sp. 'group A'; assay: Streptococcus pyogenes SK(-)GAS viability under kanamycin – luminescence, BacTiterGlo, confirmation, counter-screen for streptokinase expression inhibitor project, dose response (AID 1900); type: functional, organism-based
[9] = biological target: Botulinum neurotoxin type A (Clostridium botulinum (strain Hall / ATCC 3502 / NCTC 13319 / Type A), UniProt P0DPI1); assay: High-throughput multiplex microsphere dose response for inhibitors of toxin protease, specifically Botulinum neurotoxin light chain A protease, compounds from Cherry Pick 01.; type: functional; conditions: read-out: EC50_MICROM
Botulinum neurotoxin type A, sequence (P0DPI1 2-448 limits assumed): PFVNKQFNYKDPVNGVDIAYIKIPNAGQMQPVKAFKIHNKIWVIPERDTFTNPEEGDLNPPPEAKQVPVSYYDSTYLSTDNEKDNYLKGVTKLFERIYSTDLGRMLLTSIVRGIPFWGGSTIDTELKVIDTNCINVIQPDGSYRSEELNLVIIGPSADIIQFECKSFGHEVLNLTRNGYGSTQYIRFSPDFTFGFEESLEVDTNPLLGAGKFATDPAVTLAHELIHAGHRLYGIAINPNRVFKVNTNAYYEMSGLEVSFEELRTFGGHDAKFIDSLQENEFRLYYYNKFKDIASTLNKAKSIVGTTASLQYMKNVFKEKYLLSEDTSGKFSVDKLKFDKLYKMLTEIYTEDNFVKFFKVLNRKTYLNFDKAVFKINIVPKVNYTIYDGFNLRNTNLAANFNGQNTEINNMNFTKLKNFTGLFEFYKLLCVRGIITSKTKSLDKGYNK

Cysteine protease ATG4B, sequence (Q9Y4P1 whole entry): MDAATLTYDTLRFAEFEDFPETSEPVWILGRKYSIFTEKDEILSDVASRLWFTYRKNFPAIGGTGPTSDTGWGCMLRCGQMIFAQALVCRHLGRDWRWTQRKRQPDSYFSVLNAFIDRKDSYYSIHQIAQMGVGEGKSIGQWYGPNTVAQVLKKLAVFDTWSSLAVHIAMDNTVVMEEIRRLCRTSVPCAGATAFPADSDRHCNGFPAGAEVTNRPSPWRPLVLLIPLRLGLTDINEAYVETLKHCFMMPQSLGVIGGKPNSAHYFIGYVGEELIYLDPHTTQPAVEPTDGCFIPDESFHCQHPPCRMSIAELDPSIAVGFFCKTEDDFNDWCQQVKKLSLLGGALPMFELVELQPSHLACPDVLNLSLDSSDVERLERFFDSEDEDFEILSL
Apoptotic protease-activating factor 1, sequence (O14727 whole entry): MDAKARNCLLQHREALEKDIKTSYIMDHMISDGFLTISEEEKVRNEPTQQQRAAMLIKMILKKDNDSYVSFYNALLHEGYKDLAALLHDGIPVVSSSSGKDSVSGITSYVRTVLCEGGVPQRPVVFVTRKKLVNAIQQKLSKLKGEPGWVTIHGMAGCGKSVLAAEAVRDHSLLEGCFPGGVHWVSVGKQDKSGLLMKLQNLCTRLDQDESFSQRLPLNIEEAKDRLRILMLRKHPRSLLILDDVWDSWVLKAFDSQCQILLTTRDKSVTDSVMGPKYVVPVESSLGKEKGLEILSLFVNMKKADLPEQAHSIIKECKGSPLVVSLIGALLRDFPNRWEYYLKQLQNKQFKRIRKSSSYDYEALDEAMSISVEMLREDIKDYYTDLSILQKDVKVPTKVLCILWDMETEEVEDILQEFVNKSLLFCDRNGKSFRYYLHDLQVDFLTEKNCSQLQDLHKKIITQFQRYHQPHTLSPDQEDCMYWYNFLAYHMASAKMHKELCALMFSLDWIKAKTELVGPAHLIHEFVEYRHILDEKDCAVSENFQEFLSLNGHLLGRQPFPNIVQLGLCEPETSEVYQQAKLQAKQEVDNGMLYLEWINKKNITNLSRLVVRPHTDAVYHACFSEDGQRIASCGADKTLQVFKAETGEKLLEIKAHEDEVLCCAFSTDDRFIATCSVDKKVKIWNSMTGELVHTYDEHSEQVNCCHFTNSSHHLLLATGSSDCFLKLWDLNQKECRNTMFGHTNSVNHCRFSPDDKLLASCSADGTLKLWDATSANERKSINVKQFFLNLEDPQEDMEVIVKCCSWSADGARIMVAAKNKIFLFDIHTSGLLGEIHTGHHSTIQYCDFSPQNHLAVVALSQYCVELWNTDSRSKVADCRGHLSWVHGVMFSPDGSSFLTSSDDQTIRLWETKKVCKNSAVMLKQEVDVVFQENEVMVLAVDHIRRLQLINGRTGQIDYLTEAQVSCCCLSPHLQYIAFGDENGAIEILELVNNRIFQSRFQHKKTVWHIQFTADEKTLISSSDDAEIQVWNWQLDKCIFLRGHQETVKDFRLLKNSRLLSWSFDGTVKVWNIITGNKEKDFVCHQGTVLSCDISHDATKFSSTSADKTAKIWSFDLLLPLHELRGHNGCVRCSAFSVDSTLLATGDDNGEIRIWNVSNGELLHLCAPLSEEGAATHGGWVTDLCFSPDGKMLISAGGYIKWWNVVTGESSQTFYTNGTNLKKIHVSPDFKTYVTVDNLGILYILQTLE
Caspase-8, sequence (Q14790 217-374 limits assumed): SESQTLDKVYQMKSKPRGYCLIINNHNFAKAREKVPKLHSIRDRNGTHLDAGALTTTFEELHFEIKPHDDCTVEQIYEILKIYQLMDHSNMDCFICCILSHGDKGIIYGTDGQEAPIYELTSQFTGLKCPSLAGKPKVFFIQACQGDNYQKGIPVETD
Caspase-8, sequence (Q14790 385-479 limits assumed): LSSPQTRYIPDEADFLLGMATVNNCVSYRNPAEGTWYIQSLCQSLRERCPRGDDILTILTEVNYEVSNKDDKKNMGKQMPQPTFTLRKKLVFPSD
Phospholipase A2, sequence (P04054 whole entry): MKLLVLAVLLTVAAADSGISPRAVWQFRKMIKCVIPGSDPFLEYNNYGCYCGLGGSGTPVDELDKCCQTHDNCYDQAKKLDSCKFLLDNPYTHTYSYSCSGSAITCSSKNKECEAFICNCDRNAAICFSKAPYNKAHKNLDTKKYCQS
Caspase-9, sequence (P55211 1-315 limits assumed): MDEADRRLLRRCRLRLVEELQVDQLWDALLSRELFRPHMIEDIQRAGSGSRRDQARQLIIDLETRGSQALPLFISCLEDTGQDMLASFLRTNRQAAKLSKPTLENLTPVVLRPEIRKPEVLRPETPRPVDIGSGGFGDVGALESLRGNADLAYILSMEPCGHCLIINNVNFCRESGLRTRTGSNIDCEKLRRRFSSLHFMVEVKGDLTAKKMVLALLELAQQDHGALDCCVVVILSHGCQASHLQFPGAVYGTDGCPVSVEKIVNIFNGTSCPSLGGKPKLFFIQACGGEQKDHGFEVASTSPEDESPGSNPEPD
Caspase-9, sequence (P55211 331-416 limits assumed): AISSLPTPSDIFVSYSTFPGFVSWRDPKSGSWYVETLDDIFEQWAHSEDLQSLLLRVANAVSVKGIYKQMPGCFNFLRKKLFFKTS
Caspase-7, sequence (P55210 24-198 limits assumed): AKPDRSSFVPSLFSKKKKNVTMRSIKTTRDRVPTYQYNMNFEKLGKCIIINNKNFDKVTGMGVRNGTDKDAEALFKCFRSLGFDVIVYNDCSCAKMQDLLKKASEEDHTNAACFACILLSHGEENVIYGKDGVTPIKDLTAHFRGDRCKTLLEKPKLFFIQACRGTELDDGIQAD
Caspase-7, sequence (P55210 207-303 limits assumed): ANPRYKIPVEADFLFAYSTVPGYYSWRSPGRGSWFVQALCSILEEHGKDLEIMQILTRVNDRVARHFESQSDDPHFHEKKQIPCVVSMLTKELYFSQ

O=C(c1ccc(Cl)cc1)N1CCN(c2nc3ccccc3o2)CC1
active: AC50 (Candida albicans [1]) 14.9 µM | AC50 (Candida albicans [2]) 0.176 µM | AC50 (Candida albicans [3]) 0.465 µM

Oc1cc(NCCN2CCOCC2)cc2cccnc12
active: AC50 (Caspase-6) 3.39 µM | AC50 [4] 25.9 µM | AC50 (Caspase-8) 17.6 µM | AC50 (Caspase-7) 3.53 µM | IC50 [5] 8.53 µM | IC50 [6] 4.63 µM | IC50 [7] 2.68 µM | AC50 (Caspase-9) 15.9 µM

CC(C)c1ccccc1OCC(=O)NC1CCCc2ccccc21 (configuration not stated)
active: EC50 (Streptokinase A) 18.5 µM | IC50 (Phospholipase A2) 9.38 µM | IC50 (Cysteine protease ATG4B) 12.2 µM | EC50 [8] 16.3 µM
> 150 µM (not active): EC50 (Streptococcus)

CSc1nnc2c(n1)c(C)nn2-c1cccc(C)c1
active: EC50 [9] 6.4 µM

From ChEMBL document CHEMBL1201862, “PubChem BioAssay data set” (2004)
